According to patent publication US12577206B2 (BRISTOL-MYERS SQUIBB COMPANY, priority 2020, dated 2026):

How the values were obtained:
human FPR2 = biological target: T1, human FPR2 (Homo sapiens, UniProt P25090); experiment: FPR2 cyclic adenosine monophosphate (cAMP) assay; type: cell-based; conditions: CHO cells overexpressing human FPR2; forskolin 5 μM; inhibition of cAMP production; HTRF; read-out: hFPR2 cAMP2 EC50
T1 sequence (P25090 1-351): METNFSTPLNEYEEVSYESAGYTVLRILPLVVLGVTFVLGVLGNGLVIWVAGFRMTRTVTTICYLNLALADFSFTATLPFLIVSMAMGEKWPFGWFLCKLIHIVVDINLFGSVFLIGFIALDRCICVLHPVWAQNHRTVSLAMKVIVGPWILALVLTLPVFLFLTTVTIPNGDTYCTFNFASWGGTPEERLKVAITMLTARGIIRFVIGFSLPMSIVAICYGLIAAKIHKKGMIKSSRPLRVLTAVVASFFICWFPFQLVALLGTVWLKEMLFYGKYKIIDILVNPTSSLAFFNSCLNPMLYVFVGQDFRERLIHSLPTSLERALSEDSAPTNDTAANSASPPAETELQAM
Method in brief: (§1)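 CHO cells overexpressing human FPR1 (4,000/well) or FPR2 (2,000/well) were incubated 30 min at room temperature with compound (0.020 nM to 100 μM, 1% DMSO), IBMX 200 μM, and forskolin at 10 μM (FPR1) or 5 μM (FPR2), all final. HTRF cAMP read-out; inhibition fitted by 4-parameter logistic equation.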

human FPR1 = biological target: T2, human FPR1 (Homo sapiens, UniProt P21462); experiment: FPR1 cyclic adenosine monophosphate (cAMP) assay; type: cell-based; conditions: CHO cells overexpressing human FPR1; forskolin 10 μM; inhibition of cAMP production; HTRF; read-out: hFPR1 cAMP2 EC50
T2 sequence (P21462 1-350): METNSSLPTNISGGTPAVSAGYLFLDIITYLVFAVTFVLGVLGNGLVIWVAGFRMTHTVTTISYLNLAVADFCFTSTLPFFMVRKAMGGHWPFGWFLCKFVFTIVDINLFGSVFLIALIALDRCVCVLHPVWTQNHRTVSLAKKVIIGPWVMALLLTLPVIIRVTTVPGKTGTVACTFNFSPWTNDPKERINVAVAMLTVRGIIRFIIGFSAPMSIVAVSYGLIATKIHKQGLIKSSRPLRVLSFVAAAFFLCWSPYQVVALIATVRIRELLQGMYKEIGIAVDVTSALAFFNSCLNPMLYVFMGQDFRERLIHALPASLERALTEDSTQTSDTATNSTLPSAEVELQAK
Method in brief: as §1

| Compound | EC50 (human FPR2) [nM] | EC50 (human FPR1) [nM] |
| --- | --- | --- |
| COc1cc(F)c(-c2c(NC(=O)c3ccc(OC(F)F)cc3)c(=O)n(-c3nc(OCC(C)(C)O)ccc3Cl)n2C)c(F)c1 [Example 298, N-{2-[3-chloro-6-(2-hydroxy-2-methylpropoxy)pyridin-2-yl]-5-(2,6-difluoro-4-methoxyphenyl)-1-methyl-3-oxo-2,3-dihydro-1H-pyrazol-4-yl}-4-(difluoromethoxy)benzamide] | 14 | 440 |
| COc1cc(F)c(-c2c(NC(=O)c3ccc(OC(F)F)cc3)c(=O)n(-c3cccc(OC(F)F)c3)n2C)c(F)c1 [Example 177, N-[5-(2,6-difluoro-4-methoxyphenyl)-2-[3-(difluoromethoxy)phenyl]-1-methyl-3-oxo-2,3-dihydro-1H-pyrazol-4-yl]-4-(difluoromethoxy)benzamide] | 3 | 3 |
| COc1cc(F)c(-c2c(NC(=O)c3ccc(OC(F)F)cc3)c(=O)n(-c3cc(C4CCNCC4)cc(C)n3)n2C)c(F)c1 [Example 323, N-(5-(2,6-Difluoro-4-methoxyphenyl)-1-methyl-2-(6-methyl-4-(piperidin-4-yl)pyridin-2-yl)-3-oxo-2,3-dihydro-1H-pyrazol-4-yl)-4-(difluoromethoxy)benzamide] | 14 | > 10000 |
| COc1cc(F)c(-c2c(NC(=O)c3ccc(OC(F)F)cc3)c(=O)n(-c3ccccc3)n2C)c(F)c1 [Example 1, N-[5-(2,6-difluoro-4-methoxyphenyl)-1-methyl-3-oxo-2-phenyl-2,3-dihydro-1H-pyrazol-4-yl]-4-(difluoromethoxy)benzamide] | 12 | 2400 |
| COc1cc(F)c(-c2c(NC(=O)c3ccc(OC(F)F)cc3)c(=O)n(-c3nc(N4CC[C@H](O)C4)ccc3C(F)(F)F)n2C)c(F)c1 [Example 280, N-[5-(2,6-difluoro-4-methoxyphenyl)-2-{6-[(3S)-3-hydroxypyrrolidin-1-yl]-3-(trifluoromethyl)pyridin-2-yl}-1-methyl-3-oxo-2,3-dihydro-1H-pyrazol-4-yl]-4-(difluoromethoxy)benzamide] | 2 | 2700 |
| COc1cc(F)c(-c2c(NC(=O)c3ccc(OC(F)F)cc3)c(=O)n(-c3nc(C(F)(F)F)ccc3NCCO)n2C)c(F)c1 [Example 374, N-(5-(2,6-Difluoro-4-methoxyphenyl)-2-(3-((2-hydroxyethyl)amino)-6-(trifluoromethyl)pyridin-2-yl)-1-methyl-3-oxo-2,3-dihydro-1H-pyrazol-4-yl)-4-(difluoromethoxy)benzamide] | 22 | 320 |
| COc1cc(F)c(-c2c(NC(=O)c3ccc(OC(F)F)cc3)c(=O)n(-c3nc(N[C@H](C)C4CC4)ccc3C(F)(F)F)n2C)c(F)c1 [Example 243, N-[2-(6-{[(1R)-1-cyclopropylethyl]amino}-3-(trifluoromethyl)pyridin-2-yl)-5-(2,6-difluoro-4-methoxyphenyl)-1-methyl-3-oxo-2,3-dihydro-1H-pyrazol-4-yl]-4-(difluoromethoxy)benzamide] | 6 | > 10000 |
| COc1cc(F)c(-c2c(NC(=O)c3ccc(OC(F)F)cc3)c(=O)n(-c3nc(CO)ccc3C(F)(F)F)n2C)c(F)c1 [Example 195, N-[5-(2,6-difluoro-4-methoxyphenyl)-2-[6-(hydroxymethyl)-3-(trifluoromethyl)pyridin-2-yl]-1-methyl-3-oxo-2,3-dihydro-1H-pyrazol-4-yl]-4-(difluoromethoxy)benzamide] | 14 | > 10000 |
| Cn1c(-c2c(F)cc(Cl)cc2F)c(NC(=O)c2ccc(OC(F)F)cc2)c(=O)n1-c1cccc(C(C)(C)O)n1 [Example 407] | 23 | > 10000 |
| COc1cc(F)c(-c2c(NC(=O)c3ccc(OC(F)F)cc3)c(=O)n(-c3nc(N4CCN(CC(F)F)CC4)ccc3Cl)n2C)c(F)c1 [Example 240, N-(2-{3-chloro-6-[4-(2,2-difluoroethyl)piperazin-1-yl]pyridin-2-yl}-5-(2,6-difluoro-4-methoxyphenyl)-1-methyl-3-oxo-2,3-dihydro-1H-pyrazol-4-yl)-4-(difluoromethoxy)benzamide] | 2 | 1300 |
| COc1cc(F)c(-c2c(NC(=O)c3ccc(OC(F)F)cc3)c(=O)n(-c3nc(N4CCN(C)C(=O)C4)ccc3C(F)(F)F)n2C)c(F)c1 [Example 220, N-[5-(2,6-difluoro-4-methoxyphenyl)-1-methyl-2-[6-(4-methyl-3-oxopiperazin-1-yl)-3-(trifluoromethyl)pyridin-2-yl]-3-oxo-2,3-dihydro-1H-pyrazol-4-yl]-4-(difluoromethoxy)benzamide] | 2 | 560 |
| COc1cc(OC2CCOC2)nc(-n2c(=O)c(NC(=O)c3ccc(OC(F)F)cc3)c(-c3c(F)cc(OC)cc3F)n2C)c1 (stereo not shown) [Example 356, N-(5-(2,6-Difluoro-4-methoxyphenyl)-2-(4-methoxy-6-((tetrahydrofuran-3-yl)oxy)pyridin-2-yl)-1-methyl-3-oxo-2,3-dihydro-1H-pyrazol-4-yl)-4-(difluoromethoxy)benzamide] | 5 | > 10000 |
| COc1cc(F)c(-c2c(NC(=O)c3ccc(OC(F)F)cc3)c(=O)n(-c3nc(C(F)(F)F)ccc3OCCO)n2C)c(F)c1 [Example 372, N-(5-(2,6-Difluoro-4-methoxyphenyl)-2-(3-(2-hydroxyethoxy)-6-(trifluoromethyl)pyridin-2-yl)-1-methyl-3-oxo-2,3-dihydro-1H-pyrazol-4-yl)-4-(difluoromethoxy)benzamide] | 6 | > 10000 |
| COc1cc(F)c(-c2c(NC(=O)c3ccc(OC(F)F)cc3)c(=O)n(-c3nc(N[C@@H]4CCOC4)ccc3C(F)(F)F)n2C)c(F)c1 [Example 254, N-[5-(2,6-difluoro-4-methoxyphenyl)-1-methyl-3-oxo-2-(6-{[(3R)-oxolan-3-yl]amino}-3-(trifluoromethyl)pyridin-2-yl)-2,3-dihydro-1H-pyrazol-4-yl]-4-(difluoromethoxy)benzamide] | 4 | > 10000 |
| [2H]C([2H])([2H])Oc1cc(F)c(-c2c(NC(=O)c3ccc(OC(F)(F)F)cc3)c(=O)n(-c3cccc(C(C)(C)O)n3)n2C)c(F)c1 [Example 405, N-(5-(2,6-difluoro-4-(methoxy-d3)phenyl)-2-(6-(2-hydroxypropan-2-yl)pyridin-2-yl)-1-methyl-3-oxo-2,3-dihydro-1H-pyrazol-4-yl)-4-(trifluoromethoxy)benzamide] | 8 | 390 |
| COc1cc(F)c(-c2c(NC(=O)c3ccc(OC(F)F)cc3)c(=O)n(-c3nc(N4CCN(CC(F)(F)F)CC4)ccc3C(F)(F)F)n2C)c(F)c1 [Example 269, N-[5-(2,6-difluoro-4-methoxyphenyl)-1-methyl-3-oxo-2-{6-[4-(2,2,2-trifluoroethyl)piperazin-1-yl]-3-(trifluoromethyl)pyridin-2-yl}-2,3-dihydro-1H-pyrazol-4-yl]-4-(difluoromethoxy)benzamide] | 3 | 3300 |
| COc1cc(F)c(-c2c(NC(=O)c3ccc(OC(F)F)cc3)c(=O)n(-c3cc(C)cc(C)n3)n2C)c(F)c1 [Example 65, N-[5-(2,6-difluoro-4-methoxyphenyl)-2-(4,6-dimethylpyridin-2-yl)-1-methyl-3-oxo-2,3-dihydro-1H-pyrazol-4-yl]-4-(difluoromethoxy)benzamide] | 8 | > 10000 |
| COc1cc(F)c(-c2c(NC(=O)c3ccc(OC(F)F)cc3)c(=O)n(-c3nc(C(F)(F)F)ccc3OC)n2C)c(F)c1 [Example 371, N-(5-(2,6-Difluoro-4-methoxyphenyl)-2-(3-methoxy-6-(trifluoromethyl)pyridin-2-yl)-1-methyl-3-oxo-2,3-dihydro-1H-pyrazol-4-yl)-4-(difluoromethoxy)benzamide] | 6 | 240 |
| COc1cc(F)c(-c2c(NC(=O)c3ccc(OC(F)F)cc3)c(=O)n(-c3nc(C4CCN(S(C)(=O)=O)CC4)ccc3C(F)(F)F)n2C)c(F)c1 [Example 319] | 2 | > 10000 |
| COc1cc(F)c(-c2c(NC(=O)c3ccc(OC(F)F)cc3)c(=O)n(-c3nc(C(F)(F)F)ccc3N(C)CCO)n2C)c(F)c1 [Example 375, N-(5-(2,6-Difluoro-4-methoxyphenyl)-2-(3-((2-hydroxyethyl)(methyl)amino)-6-(trifluoromethyl)pyridin-2-yl)-1-methyl-3-oxo-2,3-dihydro-1H-pyrazol-4-yl)-4-(difluoromethoxy)benzamide] | 3 | > 10000 |
